{"source": "patent US20240424048A1", "about": "“CHINESE MEDICINE FORMULA FOR TREATING TUMORS AND/OR PULMONARY NODULES AND PREPARATION METHOD THEREOF” (priority 2023, published 2024)", "key": {"[1]": {"test_system": "Lewis lung cancer", "type": "in vivo, mouse", "conditions": "15 mg/kg", "description": "C57BL/6 mice, 6-8 weeks old, weighing 19-21 g, male, provided by Liaoning Changsheng Biotechnology Co., Ltd., certificate number: SYSK (Ji) 2018-0001. Two batches of experiments all used male C57BL/6 mice, which were adaptively raised in a laboratory for 3-5 days before the experiment.\nMouse Lewis lung cancer cells were provided by Jilin Cancer Research Institute and passaged and preserved in the laboratory. Lewis lung cancer cells were resuscitated, cells were expanded to 2-3×10^8 cells/mL, cells were collected, and cell density was adjusted to 2×10^7 cells/mL.\n(§1) a first batch of experiments: C57BL/6 mice were randomly divided into 6 groups according to body weight. • Saline control group administered with physiological saline 20 ml/kg • Solvent control group administered with 35-degree white wine 20 ml/kg • Cyclophosphamide administered with 0.075% 15 mg/20 group cyclophosphamide ml/kg • Low dose group of anti-administered with 20% anti-lung cancer 4 ml/20 lung cancer vinum ml/kg • Mid dose group of anti-administered with 40% anti-lung cancer 8 ml/20 lung cancer vinum ml/kg • High dose group of anti-Administered with 80% anti-lung 16 ml/20 m lung cancer vinum cancer vinum l/kg • a second batch of experiments: randomly divided into 6 groups based on body weight: • Saline control group administered with physiological saline 20 ml/kg • Solvent control group administered with 35-degree white wine 20 ml/kg • Cyclophosphamide administered with 0.075% 15 mg/20 group cyclophosphamide ml/kg • Low dose group of anti-administered with 10% anti-lung cancer 2 ml/20 lung cancer vinum ml/kg • Mid dose group of anti-administered with 20% anti-lung cancer 4 ml/20 lung cancer vinum ml/kg • High dose group of anti-administered with 40% anti-lung cancer 8 ml/20 lung cancer vinum ml/kg\n(§2) C57BL/6 mice were adaptively fed for 3-5 days, and an in vivo transplant tumor model was prepared using anti-tumor drug experimental methods. Each mouse was subcutaneously injected with 0.2 ml of cell suspension with a concentration of 2×10^7 cells/mL. On the second day, they were randomly divided into 6 groups based on body weight, with 20 mice in each group. Each group started administration the next day after tumor inoculation, and the drugs in each group were freshly prepared and administered at a dose of […], twice a day for 14, 16, or 21 consecutive days.\n(§3) The first batch of experiments: measure a tumor volume and plot a tumor growth curve once on the 8th, 10th, 12th, and 14th day of administration; after 14 days of administration, 10 mice in each group were weighed and euthanized. Tumors, spleens, lungs, and thymus were removed, weighed, tumor inhibition rate and organ coefficient were calculated; after 21 days of administration, 6 mice in each group were perfused with physiological saline and their lungs were removed, fixed with Bouin solution and the number of metastatic lung nodules was examined under a microscope.\n(§4) The second batch of experiments: measure the tumor volume and plot the tumor growth curve once on the 8th, 10th, 12th, 14th, and 16th day of administration; after 16 days of administration, 12 mice in each group were weighed and euthanized. Tumors, spleens, lungs, and thymus were removed, weighed, and the tumor inhibition rate and organ coefficient were calculated; after 21 days of administration, 6 mice in each group were perfused with physiological saline and their lungs were removed, fixed with Bouis solution and the number of metastatic lung nodules was examined under the microscope."}, "[2]": {"test_system": "Lewis lung cancer lung metastasis", "type": "in vivo, mouse", "conditions": "15 mg/kg; for Number of pulmonary nodules: after 21 days of administration", "experimental": "as §1\nC57BL/6 mice were adaptively fed for 3-5 days, and an in vivo transplant tumor model was prepared using anti-tumor drug experimental methods. Each mouse was subcutaneously injected with 0.2 ml of cell suspension with a concentration of 2×10^7 cells/mL. […]\nas §3, with “microscope. […]” for “microscope.”"}, "[3]": {"conditions": "15 mg/kg", "experimental": "as §1, §2, §3, §4"}, "[4]": {"conditions": "first batch, after 14 days of administration"}, "[5]": {"conditions": "second batch, after 16 days of administration"}}, "note": "Where two headings read alike, the source gives them in different places. Marks after values point to notes of the source that are not given here."}
{"molecule": "O=P1(N(CCCl)CCCl)NCCCO1", "note": "(centres unmarked) [Cyclophosphamide]", "values": [{"measurement": "Volume of tumor", "setting": "[1]; first batch, 8 days", "value": "61.08##** mm^3"}, {"measurement": "Volume of tumor", "setting": "[1]; first batch, 10 days", "value": "244.09##** mm^3"}, {"measurement": "Volume of tumor", "setting": "[1]; first batch, 12 days", "value": "817.83##** mm^3"}, {"measurement": "Volume of tumor", "setting": "[1]; first batch, 14 days", "value": "953.67##** mm^3"}, {"measurement": "Tumor inhibition rate", "setting": "[1]; [4]", "value": 63.52, "unit": "%"}, {"measurement": "Weight of tumor", "setting": "[1]; [4]", "value": "0.59 ± 0.26", "unit": "g"}, {"measurement": "Volume of tumor", "setting": "[1]; second batch, 8 days", "value": "111.30##** mm^3"}, {"measurement": "Volume of tumor", "setting": "[1]; second batch, 10 days", "value": "165.52##** mm^3"}, {"measurement": "Volume of tumor", "setting": "[1]; second batch, 12 days", "value": "278.25##** mm^3"}, {"measurement": "Volume of tumor", "setting": "[1]; second batch, 14 days", "value": "371.57##** mm^3"}, {"measurement": "Volume of tumor", "setting": "[1]; second batch, 16 days", "value": "461.54##** mm^3"}, {"measurement": "Tumor inhibition rate", "setting": "[1]; [5]", "value": 67.43, "unit": "%"}, {"measurement": "Weight of tumor", "setting": "[1]; [5]", "value": "0.56 ± 0.22", "unit": "g"}, {"measurement": "Tumor inhibition rate", "setting": "[1]; summary of both batches, by gavage", "value": 65.48, "unit": "%"}, {"measurement": "Effect on lung metastasis in Lewis lung cancer mice", "setting": "[2]; continuous administration for 21 days", "value": "can inhibit lung metastasis"}, {"measurement": "Number of pulmonary nodules", "setting": "[2]; first batch", "value": "6.17 ± 1.94"}, {"measurement": "Number of pulmonary nodules", "setting": "[2]; second batch", "value": "6.67 ± 1.21"}, {"measurement": "Toxicity (body weight, thymic coefficient, spleen coefficient of mice)", "setting": "[3]", "value": "significant toxic effects"}, {"measurement": "Weight before administration", "setting": "[3]; first batch, Table 3", "value": "20.30 ± 1.33", "unit": "g"}, {"measurement": "Lung coefficient", "setting": "[3]; [4]", "value": "7.26 ± 0.85"}, {"measurement": "Spleen coefficient", "setting": "[3]; [4]", "value": "3.40 ± 1.02"}, {"measurement": "Thymic coefficient", "setting": "[3]; [4]", "value": "1.11 ± 0.35"}, {"measurement": "Weight after administration", "setting": "[3]; [4]", "value": "20.30 ± 1.33", "unit": "g"}, {"measurement": "Weight after administration", "setting": "[3]; first batch, after 21 days of administration", "value": "21.81 ± 1.37", "unit": "g"}, {"measurement": "Weight after administration", "setting": "[3]; [5]", "value": "21.58 ± 0.79", "unit": "g"}, {"measurement": "Lung coefficient", "setting": "[3]; [5]", "value": "6.66 ± 0.72"}, {"measurement": "Spleen coefficient", "setting": "[3]; [5]", "value": "3.62 ± 0.86"}, {"measurement": "Thymic coefficient", "setting": "[3]; [5]", "value": "0.47 ± 0.16"}, {"measurement": "Weight after administration", "setting": "[3]; second batch, after 21 days of administration", "value": "22.02 ± 1.71", "unit": "g"}]}
